From PMC3149649, “Evidence for a Two-Metal-Ion Mechanism in the Cytidyltransferase KdsB, an Enzyme Involved in Lipopolysaccharide Biosynthesis” (PLoS ONE, 2011)

Assays:
[1] = biological target: T1, AA-LCKS (LPS-specific CMP-Kdo synthetase, KdsB) (Aquifex aeolicus, UniProt O66914); test: discontinuous Kdo activation assay, CTP replaced by UTP; type: biochemical; conditions: co-substrate Kdo; glycine-NaOH pH 9.0 or HEPES-NaOH pH 7.5; 80°C
T1 construct: recombinant from plasmid pT7-kdsB in E. coli BL21-CodonPlus(DE3)-RIL; no tag mentioned; monomer 27 kDa, gel filtration 53 kDa, homodimer

[2] = biological target: T1, AA-LCKS (LPS-specific CMP-Kdo synthetase, KdsB); test: X-ray crystal structure, […] Å; type: binding; conditions: co-crystallised with 1 mM CTP; two Mg2+ (Mg-A, Mg-B) in active site; pH 7.5; 19°C

T1 sequence (O66914 whole entry): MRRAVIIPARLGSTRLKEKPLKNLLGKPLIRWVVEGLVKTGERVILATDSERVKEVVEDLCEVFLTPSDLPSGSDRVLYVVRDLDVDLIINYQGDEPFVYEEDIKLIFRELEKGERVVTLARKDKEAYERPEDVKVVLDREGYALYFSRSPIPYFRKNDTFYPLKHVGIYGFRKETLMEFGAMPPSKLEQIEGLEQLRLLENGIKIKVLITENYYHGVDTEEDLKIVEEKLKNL

| Compound | discontinuous Kdo activation assay, CTP replaced by UTP [1] | X-ray crystal structure, 2.10 Å [2] |
| --- | --- | --- |
| O=c1ccn([C@@H]2O[C@H](COP(=O)(O)OP(=O)(O)OP(=O)(O)O)[C@@H](O)[C@H]2O)c(=O)[nH]1 [UTP] | AA-LCKS was able to utilize UTP for Kdo activation but not ATP or GTP | – |
| Nc1ccn([C@@H]2O[C@H](COP(=O)(O)OP(=O)(O)OP(=O)(O)O)[C@@H](O)[C@H]2O)c(=O)n1 [CTP] | – | The CTP substrate is bound to the N-terminal domain in each molecule of AA-LCKS |
